Here are results for 21 compounds from patent publication US20220047569A1, “METHOD AND COMPOUND FOR USE, IN TREATING AND/OR PREVENTING NETOSIS” (Jubilant EpiPad LLC, priority 2020, published 2022).

As a reminder, the IC50 is the midpoint of a concentration-inhibition curve.

Counter-ions that a name gives are not always drawn.

The subject of this assay is Histone H3 Citrullination in Neutrophils. As to the kind of experiment: Citrullination ELISA (Citrullinated Histone H3) in calcium ionophore stimulated neutrophils. The format is cell-based. The following applies: Neutrophil; human neutrophils, 25 μM calcium ionophore, CitH3 ELISA. Here is the method:
Neutrophils were isolated according to the EasySep Direct Human Neutrophil Isolation Kit. In short, 50 mL of blood sample was drawn in a vacutainer containing K2EDTA from a healthy donor. To the whole blood, the isolation cocktail of 50 μL/mL was added. Then, in the next step 50 μL/mL of RapidSpheres™ was added to the sample. The sample was mixed evenly with the pipette and incubated for 10 minutes at room temperature. After incubation, PBS containing 1 mM EDTA was added at the ratio of 1:1 to the blood. Then the sample tube was incubated for 10 minutes. The enriched cell suspension was transferred into a new tube and RapidSpheres™ were added at 50 μL/mL to this suspension, mixed and incubated for 10 minutes at room temperature. At this step, the enriched cell suspension was carefully collected as a clear fraction into a fresh tube. Then, previous tube was replaced with the fresh tube containing enriched cell suspension. After the final separation, the clear solution of enriched cell suspension was carefully transferred to fresh tube which was ready to use for the experiment. These cells were then subjected to wash twice with plain RPMI 1640 media without Fetal Bovine Serum (FBS) and centrifuged at 1500 rpm for 5 minutes at room temperature. Cell counts were performed on each sample by Invitrogen cell counter. After the cell count, cell density was adjusted according to the experiment and re-suspended in complete RPMI media containing RPMI1640, 2% BSA and 1 mM CaCl2.
Freshly isolated neutrophils from human donor were seeded at a density of 0.5×10^6 cells in 400 μL cell suspension/well in a 24-well plate and cells were pre-incubated with the compound for 30 minutes by adding 50 μL of the 10× concentration to achieve the final 1× concentration of compound (10 μM, 1 μM and 0.1 μM). 1% DMSO was added in control wells. Then, the cells were stimulated in the presence and absence of calcium ionophore by adding 50 μL/well to achieve the final concentration of 25 μM. Upon incubation for 30 minutes with calcium ionophore, S7 nuclease was added to the wells and incubated for 10 minutes to disrupt NET DNA. Following incubation, 10 μL of 1 mM EDTA was added to inactivate nuclease. Cells were scrapped gently and transferred to the tubes, followed by centrifugation at 1500 rpm for 5 minutes. After centrifugation, supernatant was discarded, and 200 μL of lysis buffer containing PBS and 1× Protease inhibitor was added to the tubes. The obtained lysis was then subjected to mechanical shearing using Geno grinder by spin the plate at 2500 rpm for 10 minutes, followed by collection of supernatant and stored at −20° C. or immediately used for ELISA.
ELISA was performed as per Citrullinated Histone H3 ELISA Kit. All the buffer components from the kit were dissolved according to the manufactures protocol. ELISA Buffer Concentrate (10×) (Item No. 400060) and Wash Buffer Concentrate (400×) (Item No. 400060) along with polysorbate 20 (2000×) (Item No. 400035) was diluted to 1× with milliQ water. The standard for use in the ELISA was prepared as follows: • Obtain eight clean test tubes and label them, #1 through #8. Aliquot 4.9 mL of ELISA Buffer into tube #1. • Aliquot 500 μL of ELISA Buffer into the tubes #2-8. […] This tube is considered as blank, the lowest point on the standard curve.
100 μL of standards or diluted sample was added to the appropriate wells on the 96-well plate. Plates were covered with 96-well cover sheet and incubated for two hours at room temperature on an orbital shaker. The samples and standard were removed from the wells and washed four times with Wash Buffer. After the last wash, Anti-Histone H3 HRP Conjugate (Item No. 501441) (10×) stock solution was diluted in 1×ELISA buffer and 100 μL of the HRP Conjugate working solution was added to each well of the plate and incubated for one hour at room temperature on an orbital shaker. […]
On the technique in general: In an ELISA, binding on a coated surface is turned into a signal by an enzyme label.

Regarding `Cc1c(-c2cc3ccccc3n2CC(F)F)nc2cc(C(=O)N3CCC[C@@H](N)C3)ccn12` [Compound 78, (R)-(3-aminopiperidin-1-yl)(2-(1-(2,2-difluoroethyl)-1H-indol-2-yl)-3-methylimidazo[1,2-a]pyridin-7-yl)methanone trifluoroacetic acid salt], the IC50 is above 1000 nM.

Take `Cc1c(-c2cc3ccccc3n2Cc2ccc(F)cn2)nc2cc(C(=O)N3CCC[C@@H](N)C3)ccn12` [Compound 79, (R)-(3-aminopiperidin-1-yl)(2-(1-((5-fluoropyridin-2-yl)methyl)-1H-indol-2-yl)-3-methylimidazo[1,2-a]pyridin-7-yl)methanone]: the IC50 is above 1000 nM. For `COc1ccc2cc(-c3nc4cc(C(=O)N5CCC[C@@H](N)C5)ccn4c3C)n(Cc3ccc(F)cc3)c2c1` [Compound 80, (R)-(3-aminopiperidin-1-yl)(2-(1-(4-fluorobenzyl)-6-methoxy-1H-indol-2-yl)-3-methylimidazo[1,2-a]pyridin-7-yl)methanone] the value was above 1000 nM. As to `Cc1c(-c2cc3ccccc3n2Cc2ccc(CO)cc2)nc2cc(C(=O)N3CCC[C@@H](N)C3)ccn12` [Compound 81, (R)-(3-aminopiperidin-1-yl)(2-(1-(4-(hydroxymethyl)benzyl)-1H-indol-2-yl)-3-methylimidazo[1,2-a]pyridin-7-yl)methanone], the IC50 is above 1000 nM. `N[C@@H]1CCCN(C(=O)c2cc3c4c(c2)nc(-c2cc5ccccc5n2CC2CC2)n4CCO3)C1` [Compound 87, (R)-(3-aminopiperidin-1-yl)(2-(1-(cyclopropylmethyl)-1H-indol-2-yl)-3,4-dihydro-5-oxa-1,2a-diazaacenaphthylen-7-yl)methanone]: the 50% inhibitory concentration (IC50) fell in the range of 100 to 1000 nM. For `N[C@@H]1CCCN(C(=O)c2cc3c4c(c2)nc(-c2cc5cc(F)ccc5n2CC2CC2)n4CCO3)C1` [Compound 95, (R)-(3-aminopiperidin-1-yl)(2-(1-(cyclopropylmethyl)-5-fluoro-1H-indol-2-yl)-3,4-dihydro-5-oxa-1,2a-diazaacenaphthylen-7-yl)methanone], the IC50 was below 100 nM. For `N[C@@H]1CCCN(C(=O)c2cc3c4c(c2)nc(-c2cc5ccccc5n2Cc2ccccn2)n4CCO3)C1` [Compound 97, (R)-(3-aminopiperidin-1-yl)(2-(1-(pyridin-2-ylmethyl)-1H-indol-2-yl)-3,4-dihydro-5-oxa-1,2a-diazaacenaphthylen-7-yl)methanone] the value was 100 to 1000 nM; for `N[C@@H]1CCCN(C(=O)c2cc3c4c(c2)nc(-c2cc5ccccc5n2Cc2ccc(Cl)cc2)n4CCO3)C1` [Compound 99, (R)-(3-aminopiperidin-1-yl)(2-(1-(4-chlorobenzyl)-1H-indol-2-yl)-3,4-dihydro-5-oxa-1,2a-diazaacenaphthylen-7-yl)methanone], 100 to 1000 nM. For `N[C@@H]1CCCN(C(=O)c2cc3c4c(c2)nc(-c2cc5ccccc5n2Cc2ccccc2F)n4CCO3)C1` [Compound 100, (R)-(3-aminopiperidin-1-yl)(2-(1-(2-fluorobenzyl)-1H-indol-2-yl)-3,4-dihydro-5-oxa-1,2a-diazaacenaphthylen-7-yl)methanone] the value was below 100 nM; for `N[C@@H]1CCCN(C(=O)c2cc3c4c(c2)nc(-c2cc5ccccc5n2Cc2cccnc2)n4CCO3)C1` [Compound 102, (R)-(3-aminopiperidin-1-yl)(2-(1-(pyridin-3-ylmethyl)-1H-indol-2-yl)-3,4-dihydro-5-oxa-1,2a-diazaacenaphthylen-7-yl)methanone], below 100 nM.

With `COc1cc2cc(-c3nc4cc(C(=O)N5CCC[C@@H](N)C5)cc5c4n3CCO5)n(CC3CC3)c2cc1OC` [Compound 103, (R)-(3-aminopiperidin-1-yl)(2-(1-(cyclopropylmethyl)-5,6-dimethoxy-1H-indol-2-yl)-3,4-dihydro-5-oxa-1,2a-diazaacenaphthylen-7-yl)methanone], the IC50 was below 100 nM. For `N[C@@H]1CCCN(C(=O)c2cc3c4c(c2)nc(-c2cc5ccccc5n2Cc2ccccc2)n4CCO3)C1` [Compound 104, (R)-(3-aminopiperidin-1-yl)(2-(1-benzyl-1H-indol-2-yl)-3,4-dihydro-5-oxa-1,2a-diazaacenaphthylen-7-yl)methanone], the IC50 lay within 100 to 1000 nM. In the case of `COc1ccc(Cn2c(-c3nc4cc(C(=O)N5CCC[C@@H](N)C5)cc5c4n3CCO5)cc3ccccc32)cc1` [Compound 105, (R)-(3-aminopiperidin-1-yl)(2-(1-(4-methoxybenzyl)-1H-indol-2-yl)-3,4-dihydro-5-oxa-1,2a-diazaacenaphthylen-7-yl)methanone], the IC50 lay in the range of 100 to 1000 nM. As for `COCCn1c(-c2nc3cc(C(=O)N4CCC[C@@H](N)C4)cc4c3n2CCO4)cc2ccccc21` [Compound 106, (R)-(3-aminopiperidin-1-yl)(2-(1-(2-methoxyethyl)-1H-indol-2-yl)-3,4-dihydro-5-oxa-1,2a-diazaacenaphthylen-7-yl)methanone], the IC50 is 100 to 1000 nM. In the case of `COCCn1c(-c2nc3cc(C(=O)N4CCC[C@@H](N)C4)cc4c3n2CCO4)cc2ccc(OC)cc21` [Compound 107, (R)-(3-aminopiperidin-1-yl)(2-(6-methoxy-1-(2-methoxyethyl)-1H-indol-2-yl)-3,4-dihydro-5-oxa-1,2a-diazaacenaphthylen-7-yl)methanone] it was 100 to 1000 nM; in that of `COc1ccc2cc(-c3nc4cc(C(=O)N5CCC[C@@H](N)C5)cc5c4n3CCO5)n(CC3CC3)c2c1` [Compound 109, (R)-(3-aminopiperidin-1-yl)(2-(1-(cyclopropylmethyl)-6-methoxy-1H-indol-2-yl)-3,4-dihydro-5-oxa-1,2a-diazaacenaphthylen-7-yl)methanone], 100 to 1000 nM. In the case of `N[C@@H]1CCCN(C(=O)c2cc3c4c(c2)nc(-c2cc5ccccc5n2Cc2ccncc2F)n4CCO3)C1` [Compound 110, (R)-(3-aminopiperidin-1-yl)(2-(1-((3-fluoropyridin-4-yl)methyl)-1H-indol-2-yl)-3,4-dihydro-5-oxa-1,2a-diazaacenaphthylen-7-yl)methanone] it was below 100 nM; in that of `N[C@@H]1CCCN(C(=O)c2cc3c4c(c2)nc(-c2cc5ccccc5n2Cc2cnccn2)n4CCO3)C1` [Compound 111, (R)-(3-aminopiperidin-1-yl)(2-(1-(pyrazin-2-ylmethyl)-1H-indol-2-yl)-3,4-dihydro-5-oxa-1,2a-diazaacenaphthylen-7-yl)methanone], 100 to 1000 nM. In the case of `N[C@@H]1CCCN(C(=O)c2cc3c4c(c2)nc(-c2cc5ccccc5n2Cc2ncccc2F)n4CCO3)C1` [Compound 112, (R)-(3-aminopiperidin-1-yl)(2-(1-((3-fluoropyridin-2-yl)methyl)-1H-indol-2-yl)-3,4-dihydro-5-oxa-1,2a-diazaacenaphthylen-7-yl)methanone] it was below 100 nM; in that of `N[C@@H]1CCCN(C(=O)c2cc3c4c(c2)nc(-c2cc5ccccc5n2Cc2ncccn2)n4CCO3)C1` [Compound 113, (R)-(3-aminopiperidin-1-yl)(2-(1-(pyrimidin-2-ylmethyl)-1H-indol-2-yl)-3,4-dihydro-5-oxa-1,2a-diazaacenaphthylen-7-yl)methanone], below 100 nM. Consider `N[C@@H]1CCCN(C(=O)c2cc3c4c(c2)nc(-c2cc5ccc(F)cc5n2CC2CC2)n4CCO3)C1` [Compound 114, (R)-(3-aminopiperidin-1-yl)(2-(1-(cyclopropylmethyl)-6-fluoro-1H-indol-2-yl)-3,4-dihydro-5-oxa-1,2a-diazaacenaphthylen-7-yl)methanone], for which the IC50 was below 100 nM.
